Data set [1] is filed under the species Cavia porcellus. The data set is described as follows: Tested for percent increase in efflux rate constant with 54.6 uM of compound using guinea pig detrusor. In kind it is functional.
The species entered for data set [2] is Cavia porcellus. Put plainly: Tested for relaxant activity of compound with 80 mM KCl. Type of data set: functional.
For data set [3], the species on record is Cavia porcellus. Put plainly: The compound was tested for […] activity against guinea pig detrusor (bladder) strip mildly depolarized with 15 mM KCl. In kind it is functional.
The nature of data set [4]: Tested for dissociation constant of compound at PH of 7.4. In kind it is ADME. Conditions: pH 7.4.
For data set [5], the species on record is Cavia porcellus. The data set is described as follows: The compound was tested for […] activity against guinea pig vascular tissue (portal vein) strip mildly depolarized with 15 mM KCl. Type of data set: functional.

The structures appear in SMILES notation.

The IC50 is the point on the concentration scale where inhibition reaches its midpoint. By pKa is commonly meant the pH at which an ionisable group is half protonated. A low value points to a stronger acid or weaker base.

`C[C@](O)(C(=O)Nc1ccc(S(=O)(=O)c2ccncc2)cc1)C(F)(F)F` showed an Increase in the data set listed under Cavia porcellus [1] of 40%. The IC50 in the data set listed under Cavia porcellus [2] came out at 260000 nM; in the data set filed under Cavia porcellus [3], 1600 nM.
As to `C[C@@](O)(C(=O)Nc1ccc(S(=O)(=O)c2ccncc2)cc1)C(F)(F)F`, the IC50 in the data set filed under Cavia porcellus [3] was greater than 30000 nM.
`O=C(c1ccc(NC(=O)C(O)(C(F)F)C(F)F)cc1)c1ccccn1` registered a pKa in data set [4] of 7.5. The values for the IC50 in the data set filed under Cavia porcellus [3] and in the data set filed under Cavia porcellus [5] were 70 nM and 3 nM, respectively.
On to `CC(O)(C(=O)Nc1ccc(S(=O)(=O)c2ccncc2)cc1)C(F)(F)F` (racemic), for which, in the data set listed under Cavia porcellus [3], it took 3800 nM to reach half-maximal inhibition (IC50).
In the case of `CC1(C)Oc2ccc(C#N)cc2[C@H](N2CCCC2=O)[C@H]1O` (single isomer, unassigned) [(-)-CROMAKALIM], the IC50 stood at 570 nM in the data set listed under Cavia porcellus [3] and 20 nM in the data set listed under Cavia porcellus [5].
